Bioavailability data for one molecule are collected here from patent US6521651B1, “Pharmaceutical composition” (Abbott Laboratories, priority 1996, dated 2003).

The series is described as follows: Oral bioavailability studies in dogs. In kind it is in vivo. Conditions: both sexes, beagle, dog, plasma; unformulated solid in a capsule dosage form, 5 mg/kg oral dose in dogs. The protocol:
These capsules were administered to fasted dogs with 10 ml of water.
These capsules were administered to non-fasted dogs with ten milliliter of water.
These capsules were administered to fed dogs with ten milliliter of water.
Dogs (beagle dogs, mixed sexes, weighing 7-14 kg) were fasted overnight prior to dosing, but were permitted water ad libitum. Each dog received a 100 μg/kg subcutaneous dose of histamine approximately 30 minutes prior to dosing. Each dog received a single solid dosage form corresponding to a 5 mg/kg dose of the drug. The dose was followed by approximately 10 milliliters of water. Blood samples were obtained from each animal prior to dosing and 0.25, 0.5, 1.0, 1.5, 2, 3, 4, 6, 8, 10 and 12 hours after drug administration. […] Concentrations of parent drug were determined by reverse phase HPLC with low wavelength UV detection following liquid-liquid extraction of the plasma samples. The parent drug area under the curve was calculated by the trapezoidal method over the time course of the study. The absolute bioavailability of each test composition was calculated by comparing the area under the curve after oral dosing to that obtained from a single intravenous dose. Each capsule or capsule composition was evaluated in a group containing at least six dogs; the values reported are averages for each group of dogs.

On to `CC(C)c1nc(CN(C)C(=O)N[C@H](C(=O)N[C@@H](Cc2ccccc2)C[C@H](O)[C@H](Cc2ccccc2)NC(=O)OCc2cncs2)C(C)C)cs1` [compound III, (2S,3S,5S)-5-(N-(N-((N-Methyl-N-((2-isopropyl-4-thiazolyl)methyl)-amino)carbonyl)valinyl)amino)-2-(N-((5-thiazolyl)methoxycarbonyl)amino)-1,6-diphenyl-3-hydroxyhexane], for which the bioavailability (commonly dose-corrected exposure relative to a reference, in per cent) is < 2%.
